Assay results reported in patent publication US12570659B2, “Bicyclic heteroaryl compounds useful as IRAK4 inhibitors” (BRISTOL-MYERS SQUIBB COMPANY, priority 2019, dated 2026).

Experiments:
[1] = biological target: JAK3 kinase (Homo sapiens (Human), UniProt P52333); assay: JAK3 Homogeneous Time Resolved Fluorescence (HTRF) Assay; format: binding; details: for IC50: competition binding with fluorescein-labeled ATP competitive probe; for Ratio of JAK3 IC50 to IRAK4 IC50: selectivity for IRAK4 over JAK3
How it was run: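 TR-FRET competition binding: 1 nM His- or GST-tagged JAK3 with 0.2 nM Tb-labeled anti-tag antibody, fluorescein ATP-competitive probe at its Kd, and compound for one hour. FRET read at 495/520 nm, normalized to no-compound signal. IC50 from 11 concentrations, 4-parameter logistic fit.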

[2] = biological target: IRAK4 (Homo sapiens (Human), UniProt Q9NWZ3); assay: IRAK4 Inhibition Assay; format: biochemical; details: ATP 500 μM; IRAK4 0.6 nM; 60 min room temperature
How it was run: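 Reaction started by combining IRAK4 with substrates and compound, run 60 min at room temperature and stopped with 35 mM EDTA. Fluorescent substrate and phosphorylated product were separated electrophoretically on a Caliper LabChip; inhibition normalized to no-enzyme (100%) and vehicle-only (0%) controls.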

[3] = test system: TLR2 agonist-stimulated IL-6 in human whole blood; assay: IRAK4 Whole Blood Assay; format: cell-based; details: lipoteichoic acid 10 μg/mL, 5 hours, IL-6 levels
Description: Human whole blood containing the anti-coagulant ACD-A was plated in 384-well plate (25 μL/well) and incubated with compounds for 60 minutes at 37° C. in a 5% CO2 incubator. The blood was stimulated with a TLR2 agonist, 10 μg/mL final concentration of lipoteichoic acid (Invivogen, San Diego, CA) in 25 μL RPMI (Gibco) for 5 hours in a 5% CO2 incubator. At the end of the incubation, plates were centrifuged at 2300 rpm for 5 minutes. Supernatants were harvested and analyzed for IL-6 levels by Flow Cytometry beads assay (BD Biosciences, San Jose, CA).

IRAK4, sequence (Q9NWZ3 whole entry, species assumed): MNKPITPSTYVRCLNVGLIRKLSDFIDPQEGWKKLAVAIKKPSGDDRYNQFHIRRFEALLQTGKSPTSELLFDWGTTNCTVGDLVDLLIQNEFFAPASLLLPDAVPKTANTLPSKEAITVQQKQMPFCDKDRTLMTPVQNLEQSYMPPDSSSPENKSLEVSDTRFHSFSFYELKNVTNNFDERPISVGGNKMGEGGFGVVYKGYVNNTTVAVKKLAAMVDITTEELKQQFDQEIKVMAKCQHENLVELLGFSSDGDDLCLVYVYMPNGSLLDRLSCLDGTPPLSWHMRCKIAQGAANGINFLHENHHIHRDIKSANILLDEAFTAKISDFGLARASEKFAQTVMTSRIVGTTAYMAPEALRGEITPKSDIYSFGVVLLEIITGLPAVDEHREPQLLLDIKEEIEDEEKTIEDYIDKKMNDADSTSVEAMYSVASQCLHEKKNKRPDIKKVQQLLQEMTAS
JAK3 kinase, sequence (P52333 whole entry): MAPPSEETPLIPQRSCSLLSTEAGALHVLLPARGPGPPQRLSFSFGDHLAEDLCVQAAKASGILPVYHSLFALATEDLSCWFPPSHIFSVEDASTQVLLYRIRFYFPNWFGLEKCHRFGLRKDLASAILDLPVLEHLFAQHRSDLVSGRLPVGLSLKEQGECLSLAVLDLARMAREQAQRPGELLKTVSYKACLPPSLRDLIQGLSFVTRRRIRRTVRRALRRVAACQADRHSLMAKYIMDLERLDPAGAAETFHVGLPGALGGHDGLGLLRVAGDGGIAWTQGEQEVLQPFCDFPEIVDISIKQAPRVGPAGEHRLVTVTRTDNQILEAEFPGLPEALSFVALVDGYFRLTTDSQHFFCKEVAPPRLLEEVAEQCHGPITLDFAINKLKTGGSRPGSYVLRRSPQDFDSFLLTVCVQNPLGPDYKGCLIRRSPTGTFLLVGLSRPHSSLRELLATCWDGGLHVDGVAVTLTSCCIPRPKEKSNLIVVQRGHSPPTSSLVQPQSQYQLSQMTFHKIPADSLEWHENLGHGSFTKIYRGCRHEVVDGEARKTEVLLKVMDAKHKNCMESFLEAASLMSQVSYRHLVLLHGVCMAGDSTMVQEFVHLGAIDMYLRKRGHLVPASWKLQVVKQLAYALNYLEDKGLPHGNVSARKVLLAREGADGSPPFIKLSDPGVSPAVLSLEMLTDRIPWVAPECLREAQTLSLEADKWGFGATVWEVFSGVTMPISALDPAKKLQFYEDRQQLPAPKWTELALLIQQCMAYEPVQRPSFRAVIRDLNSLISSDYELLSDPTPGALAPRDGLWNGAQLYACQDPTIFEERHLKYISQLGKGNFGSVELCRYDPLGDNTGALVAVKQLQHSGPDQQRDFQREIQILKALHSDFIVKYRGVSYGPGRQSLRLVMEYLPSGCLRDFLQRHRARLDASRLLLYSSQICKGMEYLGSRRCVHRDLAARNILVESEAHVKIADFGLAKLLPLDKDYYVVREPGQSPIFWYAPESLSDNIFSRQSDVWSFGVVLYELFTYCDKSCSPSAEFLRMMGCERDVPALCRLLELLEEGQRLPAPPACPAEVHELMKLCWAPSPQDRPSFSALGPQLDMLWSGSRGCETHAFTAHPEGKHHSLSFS

Compound | IC50 [1] | Ratio of JAK3 IC50 to IRAK4 IC50 [1] | IC50 [2] | IC50 [3]
CC(C)Nc1c(C(=O)NC[C@@H](F)C(C)(C)O)cnn2cc(-c3ccc(C#N)cc3)cc12 [Example 1, (R)-6-(4-cyanophenyl)-N-(2-fluoro-3-hydroxy-3-methylbutyl)-4-(isopropylamino)pyrrolo[1,2-b]pyridazine-3-carboxamide] | 20 µM | 1667 | 12 nM | > 10 µM
CC(C)Nc1c(C(=O)NC[C@@H](F)C(C)(C)O)cnn2cc(-c3cccnc3)cc12 [Example 3, (R)—N-(2-fluoro-3-hydroxy-3-methylbutyl)-4-(isopropylamino)-6-(pyridin-3-yl)pyrrolo[1,2-b]pyridazine-3-carboxamide] | 31 µM | 1938 | 16 nM | 9.5 µM
CC(C)Nc1c(C(=O)NC[C@@H](F)C(C)(C)O)cnn2cc(-c3ccncc3)cc12 [Example 5, (R)—N-(2-fluoro-3-hydroxy-3-methylbutyl)-4-(isopropylamino)-6-(pyridin-4-yl)pyrrolo[1,2-b]pyridazine-3-carboxamide] | 29 µM | 3152 | 9.2 nM | 4.6 µM
CC(C)Nc1c(C(=O)NC[C@@H](F)C(C)(C)O)cnn2cc(-c3cn[nH]c3)cc12 [Example 34, (R)—N-(2-fluoro-3-hydroxy-3-methylbutyl)-4-(isopropylamino)-6-(1H-pyrazol-4-yl) pyrrolo[1,2-b]pyridazine-3-carboxamide] | > 10 µM | >1493 | 6.7 nM | > 10 µM
CC(C)Nc1c(C(=O)NC[C@@H](F)C(C)(C)O)cnn2cc(-c3ccc(N)nc3)cc12 [Example 45, (R)-6-(6-aminopyridin-3-yl)-N-(2-fluoro-3-hydroxy-3-methylbutyl)-4-(isopropylamino) pyrrolo[1,2-b]pyridazine-3-carboxamide] | ~29 µM | ~3671 | 7.9 nM | 4.68 µM
COC(=O)Nc1cc(-c2cc3c(NC(C)C)c(C(=O)NC[C@@H](F)C(C)(C)O)cnn3c2)ccn1 [Example 46, methyl (R)-(4-(3-((2-fluoro-3-hydroxy-3-methylbutyl)carbamoyl)-4-(isopropylamino)pyrrolo[1,2-b]pyridazin-6-yl)pyridin-2-yl) carbamate] | > 50 µM | >5495 | 9.1 nM | 6.23 µM
CC(=O)N[C@H]1CC[C@H](NC(=O)c2cnn3cc(-c4cccnc4)cc3c2NC(C)C)CC1 [Example 48, N-((1r,4r)-4-acetamidocyclohexyl)-4-(isopropylamino)-6-(pyridin-3-yl)pyrrolo[1,2-b]pyridazine-3-carboxamide] | > 50 µM | >8475 | 5.9 nM | 0.85 µM
COC(=O)N[C@H]1CC[C@H](NC(=O)c2cnn3cc(-c4cccnc4)cc3c2NC(C)C)CC1 [Example 49, methyl ((1r,4r)-4-(4-(isopropylamino)-6-(pyridin-3-yl)pyrrolo[1,2-b]pyridazine-3-carboxamido)cyclohexyl)carbamate] | > 50 µM | >4425 | 11.3 nM | > 10 µM
CC(=O)N[C@H]1CC[C@H](NC(=O)c2cnn3cc(-c4ccncc4)cc3c2NC(C)C)CC1 [Example 50, N-((1r,4r)-4-acetamidocyclohexyl)-4-(isopropylamino)-6-(pyridin-4-yl)pyrrolo[1,2-b]pyridazine-3-carboxamide] | ~39 µM | ~18571 | 2.1 nM | 0.9 µM
COC(=O)N[C@H]1CC[C@H](NC(=O)c2cnn3cc(-c4ccncc4)cc3c2NC(C)C)CC1 [Example 51, methyl ((1r,4r)-4-(4-(isopropylamino)-6-(pyridin-4-yl)pyrrolo[1,2-b]pyridazine-3-carboxamido)cyclohexyl)carbamate] | > 50 µM | >17857 | 2.8 nM | 1.76 µM
CC(C)Nc1c(C(=O)N[C@H]2CC[C@H](N)CC2)cnn2cc(-c3ccncc3)cc12 [Example 54, N-((1r,4r)-4-aminocyclohexyl)-4-(isopropylamino)-6-(pyridin-4-yl)pyrrolo[1,2-b]pyridazine-3-carboxamide] | > 50 µM | >5495 | 9.1 nM | 1.22 µM
CC(C)Nc1c(C(=O)NC[C@@H](F)C(C)(C)O)cnn2cc(-c3cncs3)cc12 [Example 55, (R)—N-(2-fluoro-3-hydroxy-3-methylbutyl)-4-(isopropylamino)-6-(thiazol-5-yl)pyrrolo[1,2-b]pyridazine-3-carboxamide] | > 50 µM | >12821 | 3.9 nM | > 10 µM
CC(=O)N[C@H]1CC[C@H](NC(=O)c2cnn3cc(-c4ccncc4C)cc3c2NC(C)C)CC1 [Example 56, N-((1r,4r)-4-acetamidocyclohexyl)-4-(isopropylamino)-6-(3-methylpyridin-4-yl)pyrrolo[1,2-b]pyridazine-3-carboxamide] | > 50 µM | >31250 | 1.6 nM | 0.81 µM
CC(C)Nc1c(C(=O)N[C@H]2CC[C@H](O)CC2)cnn2cc(-c3ccncc3)cc12 [Example 60, N-((1r,4r)-4-hydroxycyclohexyl)-4-(isopropylamino)-6-(pyridin-4-yl)pyrrolo[1,2-b]pyridazine-3-carboxamide] | > 50 µM | >5263 | 9.5 nM | 3.95 µM
CC(C)Nc1c(C(=O)NCCC(C)(C)O)cnn2cc(-c3ccncc3)cc12 [Example 62, N-(3-hydroxy-3-methylbutyl)-4-(isopropylamino)-6-(pyridin-4-yl)pyrrolo[1,2-b]pyridazine-3-carboxamide] | > 50 µM | >5952 | 8.4 nM | 2.01 µM
CC(C)Nc1c(C(=O)NCCN2CCOCC2)cnn2cc(-c3ccncc3)cc12 [Example 63, 4-(isopropylamino)-N-(2-morpholinoethyl)-6-(pyridin-4-yl) pyrrolo[1,2-b]pyridazine-3-carboxamide] | > 50 µM | >4167 | 12 nM | 2 µM
CC(C)CCNC(=O)c1cnn2cc(-c3ccncc3)cc2c1NC(C)C [Example 64, N-isopentyl-4-(isopropylamino)-6-(pyridin-4-yl)pyrrolo[1,2-b]pyridazine-3-carboxamide] | ~29 µM | ~2071 | 14 nM | 8.91 µM
CC(=O)N[C@H]1CC[C@H](NC(=O)c2cnn3cc(-c4ccncc4F)cc3c2NC(C)C)CC1 [Example 65, N-((1r,4r)-4-acetamidocyclohexyl)-6-(3-fluoropyridin-4-yl)-4-(isopropylamino)pyrrolo[1,2-b] pyridazine-3-carboxamide] | > 50 µM | >31250 | 1.6 nM | 0.36 µM
CC(C)Nc1c(C(=O)N[C@H]2CC[C@H](NC(=O)CO)CC2)cnn2cc(-c3ccncc3F)cc12 [Example 68, 6-(3-fluoropyridin-4-yl)-N-((1r,4r)-4-(2-hydroxyacetamido)cyclohexyl)-4-(isopropylamino)pyrrolo[1,2-b]pyridazine-3-carboxamide] | > 50 µM | >7692 | 6.5 nM | 4.1 µM
CC(=O)N[C@H]1CC[C@H](NC(=O)c2cnn3cc(-c4cccnc4F)cc3c2NC(C)C)CC1 [Example 69, N-((1r,4r)-4-acetamidocyclohexyl)-6-(2-fluoropyridin-3-yl)-4-(isopropylamino)pyrrolo[1,2-b]pyridazine-3-carboxamide] | ~42 µM | ~4565 | 9.2 nM | 7.01 µM
CC(=O)N[C@H]1CC[C@H](NC(=O)c2cnn3cc(-c4cnccc4C)cc3c2NC(C)C)CC1 [Example 70, N-((1r,4r)-4-acetamidocyclohexyl)-4-(isopropylamino)-6-(4-methylpyridin-3-yl)pyrrolo[1,2-b] pyridazine-3-carboxamide] | > 50 µM | >3571 | 14 nM | > 10 µM
CC(C)Nc1c(C(=O)NCCN2CCOCC2)cnn2cc(-c3ccncc3F)cc12 [Example 71, 6-(3-fluoropyridin-4-yl)-4-(isopropylamino)-N-(2-morpholinoethyl)pyrrolo[1,2-b]pyridazine-3-carboxamide] | 7 µM | 972 | 7.2 nM | > 10 µM
CC(=O)N[C@H]1CC[C@H](NC(=O)c2cnn3cc(-c4ccc(CO)nc4)cc3c2NC(C)C)CC1 [Example 73, N-((1r,4r)-4-acetamidocyclohexyl)-6-(6-(hydroxymethyl)pyridin-3-yl)-4-(isopropylamino)pyrrolo[1,2-b]pyridazine-3-carboxamide] | > 50 µM | >16129 | 3.1 nM | 0.65 µM
